Converted amounts (≈) assume the structure as drawn.
Assays:
Influenza B virus = assay: Antiviral activity against Influenza B virus infected in MDCK cells assessed as inhibition of virus-induced cytopathic effect after 40 hrs; type: functional, cell-based
[1] = Cytotoxicity against MDCK cells after 48 hrs by Reed and Muench analysis; type: cell-based, Canis lupus familiaris; conditions: dog, read-out: TC50
Influenza A virus = assay: Antiviral activity against Influenza A virus H1N1 infected in MDCK cells assessed as inhibition of virus-induced cytopathic effect after 40 hrs; type: functional, cell-based
[2] = Selectivity index, ratio of TC50 for MDCK cells to IC50 for Influenza A virus H1N1 infected in MDCK cells; type: toxicity, cell-based; conditions: dog, read-out: Selectivity Index
[3] = Selectivity index, ratio of TC50 for MDCK cells to IC50 for Influenza B virus infected in MDCK cells; type: toxicity, cell-based; conditions: dog, read-out: Selectivity Index
Influenza A virus H3N2 = assay: Antiviral activity against Influenza A virus H3N2 infected in MDCK cells assessed as inhibition of virus-induced cytopathic effect after 40 hrs; type: functional, cell-based
[4] = Selectivity index, ratio of TC50 for MDCK cells to IC50 for Influenza A virus H3N2 infected in MDCK cells; type: toxicity, cell-based; conditions: dog, read-out: Selectivity Index

| SMILES | IC50 (Influenza B virus) [µg/mL] | CC50 at 48 h [1] [µg/mL] | IC50 (Influenza A virus) [µg/mL] | selectivity ratio [2] | selectivity ratio [3] | IC50 (Influenza A virus H3N2) [µg/mL] | selectivity ratio [4] |
| --- | --- | --- | --- | --- | --- | --- | --- |
| C=C(C(=O)OC)[C@@H]1CC[C@H](C)[C@H]2C(=C(C)C(=O)[C@@H]2[C@@H](C)O)C1 | 72 (≈ 235 µM) | 500 (≈ 1630 µM) | 90 (≈ 294 µM) | 5 | 7 | > 167 | – |
| NC(=O)c1ncn([C@@H]2O[C@H](CO)[C@@H](O)[C@H]2O)n1 [RIBAVIRIN] | 0.8 (≈ 3.28 µM) | – | 2.1 (≈ 8.6 µM) | 560 | 1400 | 1.1 (≈ 4.5 µM) | 1100 |
| C=C(C(=O)OC)[C@@H]1CC[C@H](C)[C@H]2C(=C(C)C(=O)[C@@H]2C(O)c2ccccc2)C1 (single isomer, unassigned) | > 6.17 | 12.8 (≈ 34.8 µM) | 6.17 (≈ 16.7 µM) | 2.1 | – | 6 (≈ 16.3 µM) | 2.1 |
| C=C(C(=O)O)[C@@H]1CC[C@H](C)[C@@H]2CC(=O)C(C)=C2C1 [PECHUELOIC ACID] | 24 (≈ 96.6 µM) | 240 (≈ 968 µM) | 55.6 (≈ 224 µM) | 4.3 | 10 | 55.6 (≈ 224 µM) | 4.3 |
| C=C(C(=O)OC)[C@@H]1CC[C@H](C)[C@H]2C(=C(C)C(=O)[C@@H]2C(O)c2ccc(OC)cc2)C1 (single isomer, unassigned) | 18.5 (≈ 46.5 µM) | 80.1 (≈ 201 µM) | > 18.5 | – | 4.3 | > 18.5 | – |
| C=C(C(=O)OC)[C@@H]1CC[C@H](C)[C@H]2C(=C(C)C(=O)[C@@H]2C(O)c2cc(C(F)(F)F)cc(C(F)(F)F)c2)C1 (single isomer, unassigned) | > 18.5 | 32.1 (≈ 63.6 µM) | 11 (≈ 21.8 µM) | 3 | – | 18.5 (≈ 36.7 µM) | 1.7 |
| C=C(C(=O)OC)[C@@H]1CC[C@H](C)[C@H]2C(=C(C)C(=O)[C@@H]2C(O)c2ccc(F)cc2)C1 (single isomer, unassigned) | 11 (≈ 28.5 µM) | 80.1 (≈ 207 µM) | 19 (≈ 49.2 µM) | 4.3 | 7.5 | > 18.5 | – |
| C=C(C(=O)OC)[C@@H]1CC[C@H](C)[C@H]2C(=C(C)C(=O)[C@@H]2C(O)c2ccc([N+](=O)[O-])s2)C1 (single isomer, unassigned) | 2.06 (≈ 4.91 µM) | 4.28 (≈ 10.2 µM) | 1.6 (≈ 3.81 µM) | 2.7 | 2.1 | > 2.06 | – |
| C=C(C(=O)OC)[C@@H]1CC[C@H](C)[C@H]2C(=C(C)C(=O)[C@@H]2C(O)c2cccs2)C1 (single isomer, unassigned) | > 2.06 | 8.9 (≈ 23.8 µM) | > 2.06 | – | – | 1.19 (≈ 3.18 µM) | 7.5 |
| C=C(C(=O)OC)[C@@H]1CC[C@H](C)[C@H]2C(=C(C)C(=O)[C@@H]2C(O)c2cc(OC)c(OC)c(OC)c2)C1 (single isomer, unassigned) | > 55.6 | 167 (≈ 363 µM) | 13 (≈ 28.4 µM) | 13 | – | 56 (≈ 122 µM) | 3 |
| C=C(C(=O)OC)[C@@H]1CC[C@H](C)[C@H]2C(=C(C)C(=O)[C@@H]2C(O)c2ccc(OC(F)(F)F)cc2)C1 (single isomer, unassigned) | > 18.5 | 32.1 (≈ 70.9 µM) | > 18.5 | – | – | 18 (≈ 39.8 µM) | 1.7 |
| C=C(C(=O)OC)[C@@H]1CC[C@H](C)[C@H]2C(=C(C)C(=O)[C@@H]2[C@H](O)CC)C1 | 18.5 (≈ 57.8 µM) | 167 (≈ 520 µM) | 14.4 (≈ 44.8 µM) | 9 | 7 | > 55.6 | – |
| CCOC(=O)C1=C[C@@H](OC(CC)CC)[C@H](NC(C)=O)[C@@H](N)C1 [OSELTAMIVIR] | – | – | 3.9 (≈ 12.5 µM) | – | – | 1.7 (≈ 5.44 µM) | – |
| C=C(C(=O)OC)[C@@H]1CC[C@H](C)[C@@H]2CC(=O)C(C)=C2C1 | > 18.5 | 55.6 (≈ 212 µM) | > 18.5 | – | – | 19 (≈ 72.4 µM) | 3 |
| C=C(C(=O)OC)[C@@H]1CC[C@H](C)[C@H]2C(=C(C)C(=O)[C@@H]2C(O)c2ccc(N(C)C)cc2)C1 (single isomer, unassigned) | > 18.5 | 32.1 (≈ 78 µM) | 10.7 (≈ 26 µM) | 3 | – | 18.5 (≈ 45 µM) | 1.7 |
| C=C(C(=O)OC)[C@@H]1CC[C@H](C)[C@H]2C(=C(C)C(=O)[C@@H]2C(O)c2cc(Cl)cc(Cl)c2)C1 (single isomer, unassigned) | > 6.17 | 10.7 (≈ 24.4 µM) | > 6.17 | – | – | 6 (≈ 13.7 µM) | 1.7 |
| C=C(C(=O)OC)[C@@H]1CC[C@H](C)[C@H]2C(=C(C)C(=O)[C@@H]2[C@H](O)/C=C(\C)CCC=C(C)C)C1 | 1.2 (≈ 2.89 µM) | 3.56 (≈ 8.59 µM) | 2.06 (≈ 4.97 µM) | 1.7 | 3 | 1.6 (≈ 3.86 µM) | 2.2 |
| C=C(C(=O)OC)[C@@H]1CC[C@H](C)[C@H]2C(=C(C)C(=O)[C@@H]2C(O)c2cc(F)cc(F)c2)C1 (single isomer, unassigned) | 18.5 (≈ 45.8 µM) | 32.1 (≈ 79.3 µM) | 2.63 (≈ 6.5 µM) | 12.2 | 1.7 | 14 (≈ 34.6 µM) | 2.2 |
| C=C(C(=O)OC)[C@@H]1CC[C@H](C)[C@H]2C(=C(C)C(=O)[C@@H]2C(O)c2ccncc2)C1 (single isomer, unassigned) | 18.5 (≈ 50.1 µM) | 80.1 (≈ 217 µM) | 10.7 (≈ 28.9 µM) | 7.5 | 4.3 | > 18.5 | – |
